Paper PMC7317212 (Chemmedchem, 2020)

How the values were obtained:
mGAT1 [1] = biological target: T1, mGAT1 (Mus musculus, UniProt P31648); test: [^3H]GABA uptake assay, HEK293 cells expressing mGAT1; format: cell-based; conditions: for remaining activity at 100 µM: HEK293, in presence of 100 μM compound; for IC50: [^3H]GABA uptake, pIC50±SEM
T1 construct: expressed in transfected cells; host or cells: HEK293
Outline: (§1)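 HEK293 cells expressing mouse GATs preincubated 25 min at 37 °C with compound in Krebs buffer pH 7.2, then [3H]GABA added: 8 nM plus 32 nM unlabeled for 4 min (mGAT1/3/4), 20 nM plus 20 nM for 10 min (mGAT2). Filtration, scintillation counting; nonspecific uptake with 10 mM (mGAT1/3/4) or 100 mM GABA (mGAT2); pIC50.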

mGAT2 [2] = biological target: T2, mGAT2 (Mus musculus, UniProt P31651); test: [^3H]GABA uptake assay, HEK293 cells expressing mGAT2; format: cell-based; conditions: for remaining activity at 100 µM: HEK293, in presence of 100 μM compound
T2 construct: expressed in transfected cells; host or cells: HEK293
T2 sequence (P31651 1-614): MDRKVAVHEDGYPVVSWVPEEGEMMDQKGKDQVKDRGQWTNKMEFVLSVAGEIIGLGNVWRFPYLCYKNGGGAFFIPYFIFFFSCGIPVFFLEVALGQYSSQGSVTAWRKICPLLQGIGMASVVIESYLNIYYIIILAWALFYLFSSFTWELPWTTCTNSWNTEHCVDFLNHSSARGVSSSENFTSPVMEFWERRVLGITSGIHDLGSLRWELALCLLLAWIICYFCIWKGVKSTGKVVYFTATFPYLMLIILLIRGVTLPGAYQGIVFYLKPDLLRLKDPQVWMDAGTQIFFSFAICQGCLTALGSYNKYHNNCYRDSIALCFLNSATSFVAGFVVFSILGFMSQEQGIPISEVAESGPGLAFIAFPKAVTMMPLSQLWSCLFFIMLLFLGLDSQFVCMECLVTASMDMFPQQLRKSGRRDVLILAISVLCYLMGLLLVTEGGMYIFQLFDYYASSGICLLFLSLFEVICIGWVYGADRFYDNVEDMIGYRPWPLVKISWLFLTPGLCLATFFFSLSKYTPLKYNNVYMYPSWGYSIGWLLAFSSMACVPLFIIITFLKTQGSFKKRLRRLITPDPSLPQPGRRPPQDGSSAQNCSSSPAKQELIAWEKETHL
Outline: as §1

mGAT4 [3] = biological target: T3, mGAT4 (Mus musculus, UniProt P31650); test: [^3H]GABA uptake assay, HEK293 cells expressing mGAT4; format: cell-based; conditions: for remaining activity at 100 µM: HEK293, in presence of 100 μM compound; for IC50: [^3H]GABA uptake, pIC50±SEM
T3 construct: expressed in transfected cells; host or cells: HEK293
T3 sequence (P31650 1-627): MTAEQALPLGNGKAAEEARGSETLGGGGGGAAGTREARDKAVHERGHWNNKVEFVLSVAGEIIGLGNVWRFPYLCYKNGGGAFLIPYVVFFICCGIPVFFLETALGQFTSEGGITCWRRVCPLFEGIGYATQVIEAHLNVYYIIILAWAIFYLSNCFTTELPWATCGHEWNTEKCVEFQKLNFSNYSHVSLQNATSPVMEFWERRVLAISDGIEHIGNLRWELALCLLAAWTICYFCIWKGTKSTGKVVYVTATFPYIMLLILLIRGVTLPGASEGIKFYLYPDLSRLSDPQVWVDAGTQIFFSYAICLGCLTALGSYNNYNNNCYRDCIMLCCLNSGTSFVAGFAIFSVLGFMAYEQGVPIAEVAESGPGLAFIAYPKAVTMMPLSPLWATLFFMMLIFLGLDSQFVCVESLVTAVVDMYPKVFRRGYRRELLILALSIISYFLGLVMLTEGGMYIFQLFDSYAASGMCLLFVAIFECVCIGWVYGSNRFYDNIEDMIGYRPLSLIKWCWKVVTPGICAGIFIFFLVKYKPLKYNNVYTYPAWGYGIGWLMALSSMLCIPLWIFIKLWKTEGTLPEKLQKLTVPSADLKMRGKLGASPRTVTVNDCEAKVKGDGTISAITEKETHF
Outline: as §1

mGAT3 [4] = biological target: T4, mGAT3 (Mus musculus, UniProt P31649); test: [^3H]GABA uptake assay, HEK293 cells expressing mGAT3; format: cell-based; conditions: for remaining activity at 100 µM: HEK293, in presence of 100 μM compound; for IC50: [^3H]GABA uptake, pIC50±SEM
T4 construct: expressed in transfected cells; host or cells: HEK293
T4 sequence (P31649 1-602): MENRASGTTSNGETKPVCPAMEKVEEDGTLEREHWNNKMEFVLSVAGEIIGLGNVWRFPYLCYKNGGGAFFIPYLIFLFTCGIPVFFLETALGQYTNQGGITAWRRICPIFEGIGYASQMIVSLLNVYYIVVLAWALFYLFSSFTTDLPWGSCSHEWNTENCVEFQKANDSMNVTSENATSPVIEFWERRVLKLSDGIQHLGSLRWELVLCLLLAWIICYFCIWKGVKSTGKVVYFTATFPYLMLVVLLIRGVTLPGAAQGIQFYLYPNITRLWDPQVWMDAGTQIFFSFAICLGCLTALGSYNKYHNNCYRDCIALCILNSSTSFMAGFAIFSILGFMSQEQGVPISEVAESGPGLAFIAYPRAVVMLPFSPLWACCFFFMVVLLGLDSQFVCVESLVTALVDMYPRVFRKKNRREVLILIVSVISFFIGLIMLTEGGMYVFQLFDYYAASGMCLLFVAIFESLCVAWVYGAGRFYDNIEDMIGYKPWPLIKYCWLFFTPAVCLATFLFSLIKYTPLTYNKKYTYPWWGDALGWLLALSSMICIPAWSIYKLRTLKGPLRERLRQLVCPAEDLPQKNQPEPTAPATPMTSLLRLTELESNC
Outline: as §1

mGAT1 [5] = biological target: T1, mGAT1; test: MS Binding Assay with NO711 as native MS marker; conditions: for remaining activity at 100 µM: in presence of 100 μM compound, read-out: remaining specific NO711 binding (mGAT1)
Outline: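 Competitive MS binding using membranes from HEK293 cells stably expressing mGAT1, with 10 nM unlabeled NO711 as marker and compounds at 7 concentrations. Nonspecific binding defined with 100 mM GABA. Bound NO711 eluted after filtration and quantified by LC-ESI-MS/MS against [2H10]NO711; Ki derived.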

mGAT2 [6] = biological target: T2, mGAT2; conditions: cited from earlier work; for remaining [^3H]GABA uptake mGAT2: in presence of 100 μM compound
mGAT4 [7] = biological target: T3, mGAT4; test: GABA uptake inhibition at mGAT4 with varied preincubation time; format: cell-based
mGAT3 [8] = biological target: T4, mGAT3; conditions: cited from earlier work
mGAT4 [9] = biological target: T3, mGAT4; conditions: in presence of 100 μM compound; cited from earlier work

Compound | remaining activity at 100 µM (mGAT1 [1]) [%] | remaining activity at 100 µM (mGAT2 [2]) [%] | remaining activity at 100 µM (mGAT4 [3]) [%] | remaining activity at 100 µM (mGAT3 [4]) [%] | remaining activity at 100 µM (mGAT1 [5]) [%] | IC50 (mGAT4 [3]) [µM] | IC50 (mGAT3 [4]) [µM] | other results
CCOC(=O)C1CCCN(CCCC(O)(c2ccc(OC)cc2)c2ccc(OC)cc2)C1 (racemic) [12 l, rac ‐Ethyl 1‐[4‐hydroxy‐4,4‐bis(4‐methoxyphenyl)butyl]piperidine‐3‐carboxylate] | 79.3 | 70.4 | 73.8 | 65 | 104 | – | – | –
CCOC(=O)C1CCCN(CCOC(c2ccc(CO)cc2)(c2ccc(OC)cc2)c2ccc(OC)cc2)C1 (racemic) [12 m, rac ‐Ethyl 1‐(2‐{[4‐(hydroxymethyl)phenyl]bis[4‐methoxyphenyl]methoxy}‐ethyl)piperidine‐3‐carboxylate] | 50.4 | 49.3 | – | – | 75.3 | 58.9 | 35.5 | –
CCOC(=O)CCNCc1ccc(C(OCCN2CCCC(C(=O)OCC)C2)(c2ccc(OC)cc2)c2ccc(OC)cc2)cc1 (racemic) [12 o, rac ‐Ethyl 1‐{2‐[(4‐{[(3‐ethoxy‐3‐oxopropyl)amino]methyl}phenyl)bis(4‐methoxyphenyl)methoxy]ethyl}piperidine‐3‐carboxylate] | – | – | – | – | 72.4 | 21.9 | 23.4 | IC50 (mGAT1 [1]): 25.7 µM; IC50 (mGAT2 [2]; [^3H]GABA uptake, pIC50±SEM): 19.1 µM
CCOC(=O)C1CCCN(CCOC(c2ccc(CNC3(C(=O)OCC)CC3)cc2)(c2ccc(OC)cc2)c2ccc(OC)cc2)C1 (racemic) [12 p, rac‐ Ethyl 1‐(2‐{[4‐({[1‐(ethoxycarbonyl)cyclopropyl]amino}methyl)‐phenyl]bis[4‐methoxyphenyl]methoxy}ethyl)piperidine‐3‐carboxylate] | 75.5 | 103 | 66.1 | 58.8 | 95.8 | – | – | –
CCOC(=O)C1CCCN(CCOC(c2ccc(CNC(C)(C)C(=O)OCC)cc2)(c2ccc(OC)cc2)c2ccc(OC)cc2)C1 (racemic) [12 q, rac‐ Ethyl 1‐{2‐[(4‐{[(1‐ethoxy‐2‐methyl‐1‐oxopropan‐2‐yl)amino]methyl}‐phenyl)bis(4‐methoxyphenyl)methoxy]ethyl}piperidine‐3‐carboxylate] | 66.9 | 67.4 | 57.4 | 49.3 | 90.9 | – | – | –
CCOC(=O)C1CCCN(CCOC(c2ccc(CNCCCC(=O)O)cc2)(c2ccc(OC)cc2)c2ccc(OC)cc2)C1 (racemic) [12 s, rac ‐4‐{[4‐({2‐[3‐(Ethoxycarbonyl)piperidin‐1‐yl]ethoxy}bis{4‐methoxy‐phenyl}methyl)benzyl]amino}butanoic acid] | 52.4 | 76.7 | 67.6 | 59.3 | 84.9 | – | – | –
CCOC(=O)C1CCCN(CCOC(c2ccc(CNc3ccc(C(=O)O)cc3)cc2)(c2ccc(OC)cc2)c2ccc(OC)cc2)C1 (racemic) [12 t, rac‐ 4‐{[4‐({2‐[3‐(Ethoxycarbonyl)piperidin‐1‐yl]ethoxy}bis{4‐methoxy‐phenyl}methyl)benzyl]amino}benzoic acid] | 52.3 | 73.5 | 63.9 | 49.7 | 102 | – | – | –
COc1ccc(C(OCCN2CCC[C@@H](C(=O)O)C2)(c2ccc(C=O)cc2)c2ccc(OC)cc2)cc1 [(R)‐5 a] | – | 50.1 | – | – | – | 13.8 | 33.9 | IC50 (mGAT1 [1]): 35.5 µM; Ki (mGAT1 [5]; MS Binding Assay, NO711 marker, pKi±SEM, read-out: pK i mGAT1 (converted)): 12.3 µM
COc1ccc(C(OCCN2CCC[C@H](C(=O)O)C2)(c2ccc(C=O)cc2)c2ccc(OC)cc2)cc1 [(S)‐5 a, (S)‐1‐{2‐[(4‐Formylphenyl)bis(4‐methoxyphenyl)methoxy]ethyl}piper‐idine‐3‐carboxylic acid] | – | 72.6 | – | – | 77.4 | 1.29 | 6.92 | IC50 (mGAT1 [1]): 72.4 µM
COc1ccc(C(OCCN2CCC[C@H](C(=O)O)C2)(c2ccc(OC)cc2)c2ccc(OC)cc2)cc1 [(S)‐SNAP‐5114, reference compound] | – | – | – | – | – | – | – | remaining [^3H]GABA uptake mGAT2 (mGAT2 [6]): 56%; Normalized pIC50 mGAT4 (mGAT4 [7]; preincubation time 10 min, experiments 1-3, relative to 25 min = 100.00): 97.20; Normalized pIC50 mGAT4 (mGAT4 [7]; preincubation time 25 min, experiments 1-3 (reference)): 100.00; Normalized pIC50 mGAT4 (mGAT4 [7]; preincubation time 25 min, experiments 4-6 (reference)): 100.00; Normalized pIC50 mGAT4 (mGAT4 [7]; preincubation time 60 min, experiments 1-3, relative to 25 min = 100.00): 101.23; Normalized pIC50 mGAT4 (mGAT4 [7]; preincubation time 60 min, experiments 4-6, relative to 25 min = 100.00): 103.79
COc1ccc(C(OCCN2CCC[C@H](C(=O)O)C2)(c2ccc(OC)cc2)c2ccc(OC)cc2C)cc1 [DDPM‐859] | – | – | – | – | – | – | – | pIC50 mGAT2 (mGAT2 [6]; [^3H]GABA uptake, pIC50±SEM): 4.12±0.08; pIC50 mGAT3 (mGAT3 [8]; [^3H]GABA uptake, pIC50±SEM): 4.85±0.04
Cc1ccsc1C(=CCCN1CCC[C@@H](C(=O)O)C1)c1sccc1C [Tiagabine] | – | – | – | – | – | – | – | remaining [^3H]GABA uptake mGAT4 (mGAT4 [9]): 73%; remaining [^3H]GABA uptake mGAT2 (mGAT2 [6]): 50%; remaining [^3H]GABA uptake mGAT3 (mGAT3 [8]; in presence of 100 μM compound): 64%
